Data: patent publication US20070161542A1, “Ptb1b photoprobes” (priority 2003, published 2007)
pIC50, pKi: −log10 of the molar value.

Assays:
Format in all cases: biochemical
Flag-PTP1B(1-320) = target: T1, Flag-PTP1B(1-320) (Homo sapiens, UniProt P18031); assay: Enzyme kinetic assay (DiFMUP), Flag-PTP1B; conditions: for IC50 shift in the presence of 0.1% protein: 0.1% protein (HSA) vs none; for pIC50: in the dark; for pKi: non-irradiated probes, competitive, reversible inhibitors of PTP1B
T1 construct: Flag-PTP1B (residues 1-320 as a flag fusion); made in house
T1 sequence (P18031 1-320): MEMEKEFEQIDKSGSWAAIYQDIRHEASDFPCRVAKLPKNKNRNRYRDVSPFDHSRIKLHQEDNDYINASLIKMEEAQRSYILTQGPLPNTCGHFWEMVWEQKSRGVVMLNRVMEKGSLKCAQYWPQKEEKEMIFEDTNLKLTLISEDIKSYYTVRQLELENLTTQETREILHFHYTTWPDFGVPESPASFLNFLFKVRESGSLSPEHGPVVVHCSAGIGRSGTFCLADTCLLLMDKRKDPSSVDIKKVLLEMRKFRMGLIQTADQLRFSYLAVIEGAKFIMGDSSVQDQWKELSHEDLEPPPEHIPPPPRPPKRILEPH
Source text: (§1) Protein tyrosine phosphatases used in this study were expressed and purified using published procedures, as follows: (a) Flag-PTP1B (residues 1-320 as a flag fusion), Huyer et al. (29). (b) Flag-TCPTP (residues 1-281 as a flag fusion), Asante-Appiah et al. (30). (c) Flag-CD45 (residues 556-1268 as a flag fusion), Wang et al. (31). (d) Mutant C215S-PTP1B (residues 1-320 as a gst fusion), Skorey et al. (28). (e) Infected SF9 cell lysate expressing full-length PTP1B (as a flag fusion), Cromlish et al. (25). For studies using H2O2-inactivated Flag-PTP1B, 100 μl of 2 μg/ml PTP1B was incubated with 100 μl of 1 mM or 20 mM H2O2 for 15 min to obtain 50% or 100% inactivated enzyme respectively as determined by the enzyme kinetic assay.
Kinetic measurements were performed using a Spectromax Gemini fluorescent plate reader (Molecular Devices, Sunnyvale, Calif.) in a 96-well plate format. Briefly, to 170 μl of BisTris buffer (50 mM BisTris, with and without 150 mM NaCl, 2 mM EDTA, 5 mM DMH, pH 6.3) containing 0-100 μM DiFMUP with or without 0.1% human serum albumin was added 10 μl of 10 or 50 μM photoprobe in water in a three-fold serial dilution. The reaction was initiated by the addition of 20 μl of 0.04 μg/ml Flag-PTP1B, Flag-TCPTP (0.04 μg/ml) or Flag-CD45 (0.01 μg/ml) in BisTris buffer containing 20% glycerol and 0.01% Triton X-100. The conversion of DiFMUP to DiFMU was monitored continuously for 5 min with excitation at 360 nm and emission at 450 nm (cutoff filter at 435 nm). IC50 values were calculated by nonlinear regression fit of the initial rates versus inhibitor concentration obtained using 10 μM DiFMUP using the Softmax Pro software (version 3.11, Molecular Devices). Ki values were determined by non-linear regression fit of the initial rates versus substrate concentration at various inhibitor concentrations using the kinetic equation software from Grafit software (Erithacus Software).

Flag-TCPTP = target: T2, Flag-TCPTP (Homo sapiens, UniProt P17706); assay: Enzyme kinetic assay (DiFMUP), Flag-TCPTP; conditions: in the dark, 10 μM DiFMUP
T2 construct: Flag-TCPTP (residues 1-281 as a flag fusion); made in house
T2 sequence (P17706 1-281): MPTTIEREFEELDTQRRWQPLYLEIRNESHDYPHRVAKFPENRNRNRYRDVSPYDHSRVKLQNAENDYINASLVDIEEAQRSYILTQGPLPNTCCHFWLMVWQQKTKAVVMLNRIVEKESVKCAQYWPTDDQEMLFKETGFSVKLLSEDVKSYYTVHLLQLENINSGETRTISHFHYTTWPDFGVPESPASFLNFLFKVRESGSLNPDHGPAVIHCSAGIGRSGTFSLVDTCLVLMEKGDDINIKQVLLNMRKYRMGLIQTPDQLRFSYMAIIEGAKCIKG
Source text: as §1
(§2) Kinetic measurements were performed using a Spectromax Gemini fluorescent plate reader (Molecular Devices, Sunnyvale, Calif.) in a 96-well plate format. […] The conversion of DiFMUP to DiFMU was monitored continuously for 5 min with excitation at 360 nm and emission at 450 nm (cutoff filter at 435 nm). […] Ki values were determined by non-linear regression fit of the initial rates versus substrate concentration at various inhibitor concentrations using the kinetic equation software from Grafit software (Erithacus Software).

Flag-CD45 = target: T3, Flag-CD45 (Mus musculus, UniProt P06800); assay: Enzyme kinetic assay (DiFMUP), Flag-CD45; conditions: Flag-CD45, in the dark, 10 μM DiFMUP
T3 construct: Flag-CD45 (residues 556-1268 as a flag fusion); made in house
T3 sequence (P06800 581-1293 limits assumed): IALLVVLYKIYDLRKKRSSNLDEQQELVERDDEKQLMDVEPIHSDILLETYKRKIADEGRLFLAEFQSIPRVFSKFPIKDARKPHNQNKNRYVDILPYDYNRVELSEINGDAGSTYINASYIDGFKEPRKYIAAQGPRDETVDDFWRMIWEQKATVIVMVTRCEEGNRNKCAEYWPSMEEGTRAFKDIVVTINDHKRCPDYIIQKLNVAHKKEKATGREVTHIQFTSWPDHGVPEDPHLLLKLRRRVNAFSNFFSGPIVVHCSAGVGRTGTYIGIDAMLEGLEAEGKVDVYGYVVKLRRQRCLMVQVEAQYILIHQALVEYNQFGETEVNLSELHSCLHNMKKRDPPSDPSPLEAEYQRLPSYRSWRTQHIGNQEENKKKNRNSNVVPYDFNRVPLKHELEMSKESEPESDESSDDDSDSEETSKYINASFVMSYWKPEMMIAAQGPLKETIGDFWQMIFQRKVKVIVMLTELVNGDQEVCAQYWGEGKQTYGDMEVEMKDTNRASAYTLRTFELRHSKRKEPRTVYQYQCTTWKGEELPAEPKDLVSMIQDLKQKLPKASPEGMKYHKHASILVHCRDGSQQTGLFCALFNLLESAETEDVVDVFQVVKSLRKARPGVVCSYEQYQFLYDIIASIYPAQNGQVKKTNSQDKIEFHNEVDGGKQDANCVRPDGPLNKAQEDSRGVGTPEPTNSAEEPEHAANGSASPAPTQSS
Source text: as §1, §2

[1] = Flag-PTP1B(1-320), 10 μM DiFMUP

| IC50 shift in the presence of 0.1% protein (Flag-PTP1B(1-320)) | pIC50 (Flag-PTP1B(1-320); Fla-PTP1B + 0.1% HSA) | pIC50 (Flag-PTP1B(1-320); [1]) | pKi (Flag-PTP1B(1-320)) | pIC50 (Flag-TCPTP) | pIC50 (Flag-CD45) | SMILES |
| --- | --- | --- | --- | --- | --- | --- |
| 7 fold | 8.82 | 9.70 | 10.00 | 10.00 | 6.31 | NC(=O)[C@H](Cc1ccc(C(F)(F)P(=O)(O)O)c(Br)c1)NC(=O)[C@H](Cc1ccc(C(F)(F)P(=O)(O)O)c(Br)c1)NC(=O)c1cc(I)cc(C2(C(F)(F)F)N=N2)c1 [Example 1, Tetraamnionium 3-bromo-4-(difluoro(phosphonato)methyl)-N-(3-iodo-5-(3-(trifluoromethyl)-3H-diaziren-3-yl)benzoyl)-L-phenylalanyl-3-bromo-4-(difluoro(phosphonato)methyl)-L-phenylalaninamide] |
| not significantly affected | 7.85 | 7.96 | 8.30 | 8.22 | 4.90 | NC(=O)[C@H](Cc1ccc(C(F)(F)P(=O)(O)O)cc1)NC(=O)[C@H](Cc1ccc(C(F)(F)P(=O)(O)O)cc1)NC(=O)c1cc(I)cc(C2(C(F)(F)F)N=N2)c1 [Example 9, 4-(Difluoro(phosphono)methyl)-N-(3-iodo-5-(3-(trifluoromethyl)-3H-diaziren-3-yl)benzoyl)-L-phenylalanyl-4-(difluoro(phosphono)methyl)-L-phenylalaninamide] |
